{
  "source": "patent US12201720B2",
  "about": "“Pharmaceutical composition comprising GHB gastro-retentive raft forming systems having trigger pulse drug release” (Tris Pharma, Inc., priority 2017, dated 2025)",
  "origin": "cited, not measured here",
  "details": "descriptive statement",
  "note": "Read-outs that look alike come from different tables or passages of the source.",
  "data": [
    {"smiles": "O=C(O)CCCO", "note": "[Sodium oxybate]", "values": [
      {"measurement": "Solubility in water / aqueous solutions", "value": "very soluble"},
      {"measurement": "Solubility in water / aqueous solutions", "setting": "listed as Sodium GHB", "value": "highly water-soluble"}
    ]}
  ]
}
